Reference: patent US8283368B2, “Selective ligands for the dopamine 3 (D3) receptor and methods of using the same” (The Regents of the University of Michigan, priority 2008, dated 2012)
Entries after “also recorded” stand apart in the source; their conditions may differ. Read-outs that look alike come from different tables or passages of the source.

Columns and labels:
[1] = molecular target: T1, D2 receptor (Rattus norvegicus, UniProt P61169); assay: In vivo hypothermia assay in rats (D2 agonist activity); design: compounds 5, 6, and 12 in yawning and hypothermia assays in rats; from tissue; host or cells: living rats (Harlan), core body temperature read-out; conditions: for in vivo functional activity at the D2 receptor: concluded from hypothermia in rats; for induction of hypothermia / changes in body temperature: rats, s.c.
T1 sequence (P61169 whole entry): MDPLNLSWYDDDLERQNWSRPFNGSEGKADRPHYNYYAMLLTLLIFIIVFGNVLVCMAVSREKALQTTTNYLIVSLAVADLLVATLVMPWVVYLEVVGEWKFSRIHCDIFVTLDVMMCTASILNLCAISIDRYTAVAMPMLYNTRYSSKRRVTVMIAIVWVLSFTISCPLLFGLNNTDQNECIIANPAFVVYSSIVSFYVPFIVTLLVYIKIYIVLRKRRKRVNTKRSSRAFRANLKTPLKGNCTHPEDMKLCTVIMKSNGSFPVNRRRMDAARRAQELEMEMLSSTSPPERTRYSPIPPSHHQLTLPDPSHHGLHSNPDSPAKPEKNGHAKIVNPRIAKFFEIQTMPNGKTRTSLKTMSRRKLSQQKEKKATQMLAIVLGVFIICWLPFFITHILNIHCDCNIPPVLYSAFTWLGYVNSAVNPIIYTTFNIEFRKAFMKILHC
Experimental: Recently, in vivo functional assays for the D3 and D2 receptors have been validated. (24,25). […] By employing these validated assays, compounds 5, 6, and 12 were evaluated for their in vivo functional activity at the D3 and D2 receptors.
(§1) Rats were purchased from Harlan (Indianapolis, Ind.) and housed three to a cage for yawning studies, and one to a cage for hypothermia studies. […] Yawning studies were performed as previously described (24,25), with yawning defined as a prolonged (about 1 second), wide opening of the mouth followed by a rapid closure. […] Yawning was recorded for 30 minutes after each injection. […] Yawns and changes in core body temperature are presented as the mean±standard error of the mean (SEM) with 8 (yawning) or 6 (hypothermia) rats per group.

[2] = molecular target: D1-like dopamine receptors; assay: [3H]SCH 23390 binding assay for D1-like dopamine receptors, rat brain membranes; conditions: single-site model, read-out: Ki ± SEM D1-like [3H]SCH23390
Experimental: (§2) All other Ki values are based on a single-site model.
(§3) Determination of D3 dopamine receptor affinity and selectivity were performed in membranes prepared from the brains of adult, male Sprague-Dawley rats (Harlan Sprague-Dawley, Indianapolis, Ind.). All compounds were dissolved in 100% ethanol at a concentration of 5 mM.

[3] = molecular target: T2, D3 receptor (Rattus norvegicus, UniProt P19020); assay: [3H]PD 128907 binding assay for D3 receptors, rat ventral striatum membranes; conditions: for Selectivity D1-like/D3 / Selectivity D2-like/D3: ratio of Ki values, Table 1; for less potent than compound 6 to the D3 receptor: Ki compared with compound 6
T2 construct: membranes prepared from the brains of adult, male Sprague-Dawley rats; from tissue; host or cells: rat ventral striatum (nucleus accumbens and olfactory tubercles) membranes
T2 sequence (P19020 whole entry): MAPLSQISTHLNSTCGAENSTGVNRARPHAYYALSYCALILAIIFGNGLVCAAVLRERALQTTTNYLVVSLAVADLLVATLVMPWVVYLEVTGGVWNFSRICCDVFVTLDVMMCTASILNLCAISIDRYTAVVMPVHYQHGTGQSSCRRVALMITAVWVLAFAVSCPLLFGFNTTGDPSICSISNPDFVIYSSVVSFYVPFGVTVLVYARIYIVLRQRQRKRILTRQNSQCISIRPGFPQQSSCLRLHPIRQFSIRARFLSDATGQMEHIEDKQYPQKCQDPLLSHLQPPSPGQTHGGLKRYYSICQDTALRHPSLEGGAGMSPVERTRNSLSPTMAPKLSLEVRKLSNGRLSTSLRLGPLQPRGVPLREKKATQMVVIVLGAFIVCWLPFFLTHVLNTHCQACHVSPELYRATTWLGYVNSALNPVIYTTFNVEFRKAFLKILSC
Experimental: as §2, §3
Rat ventral striatum (nucleus accumbens and olfactory tubercles) was prepared in assay buffer (50 mM Tris, 1 mM EDTA; pH 7.4 at 23° C.) to yield a final concentration of 10 mg original wet weight (o.w.w.)/ml. […] Nonspecific binding was defined by 1 μM spiperone. Assay tubes were incubated at 23° C. for 3 hours. The reaction was terminated by rapid vacuum filtration.

[4] = molecular target: T1, D2 receptor; assay: [3H]Spiperone binding assay for D2-like receptors, rat caudate-putamen membranes; design: from tissue; host or cells: rat caudate-putamen membranes; conditions: for Ki: rat brain
Experimental: as §2, §3
[^3H]Spiperone binding assays. […] Assays were performed using membranes prepared from rat caudate-putamen, which predominantly express the D2 subtype of D2-like receptors, and the final membrane homogenate concentration was 1.5 mg o.w.w./ml. The assay buffer was 50 mM Tris-HCl, 5 mM KCl, 2 mM MgCl2, and 2 mM CaCl2, pH 7.4 at 23° C.; the concentration of [^3H]spiperone (24 Ci/mmol; Amersham) was 0.2 nM; and the incubation time was 90 minutes at 23° C. Nonspecific binding was defined in the presence of 1 μM (+)-butaclamol.

[5] = background statement on known compounds; cited from earlier work
[6] = Aqueous solubility; format: physicochemical
[7] = molecular target: T1, D2 receptor; assay: Alteration of pramipexole induced hypothermia in rats; format: in vivo; design: compounds 5, 6, and 12 in yawning and hypothermia assays in rats; from tissue; host or cells: living rats (Harlan), core body temperature read-out; conditions: rats pretreated with 10.0 or 32.0 mg/kg
Experimental: as §1

[8] = single-site model, read-out: Ki ± SEM D2 [3H]Spiperone
[9] = rat brain, single-site model, mean±SEM of three to five determinations, read-out: Ki ± SEM D3 [3H]PD128907
[10] = 2-site fit, high affinity component, read-out: Ki ± SEM D2 [3H]Spiperone, high affinity component (h)
[11] = 2-site fit, low affinity component, read-out: Ki ± SEM D2 [3H]Spiperone, low affinity component (1)

Row | Compound | Ki [2] | Selectivity D1-like/D3 [3] | Selectivity D2-like/D3 [3] | Ki [4, 8] | Ki [3, 9] | aqueous solubility [6] | in vivo functional activity at the D2 receptor [1] | induction of hypothermia / changes in body temperature [1] | further results
1 | CCCN[C@H]1CCc2nc(N)sc2C1 [Compound 1, pramipexole, reference compound] | > 100000 nM |  |  |  |  |  | D2 agonist at higher doses | induction of hypothermia occurring at higher doses | 
2 | CCCN(CC[C@H]1CC[C@H](NC(=O)c2ccc3ccccc3c2)CC1)[C@H]1CCc2nc(N)sc2C1 [Compound 6, Trans-N-(4-(2-(((S)-2-amino-4,5,6,7-tetrahydrobenzo[d]thiazol-6-yl)(propyl)amino)ethyl)cyclohexyl)-2-naphthamide] |  |  |  |  |  | good aqueous solubility | no detectable agonist activity at the D2 receptor | failed to induce changes in body temperature | aqueous solubility ([6]; dihydrochloride salt form): greater than 100 mg/ml
3 | CCCCN(CC[C@H]1CC[C@H](NC(=O)c2ccc3ccccc3c2)CC1)[C@H]1CCc2nc(N)sc2C1 [Compound 7, Trans-N-(4-(2-(((S)-2-amino-4,5,6,7-tetrahydrobenzo[d]thiazol-6-yl)(butyl)amino)ethyl)cyclohexyl)-2-naphthamide] | 5400 nM | >7,000 | 74 |  | 0.74 ± 0.083 nM |  |  |  | less selectivity for the D3 receptor over the D2 receptor than compound 6 ([3]; D2 high affinity binding component): ~10 fold; Ki [4, 10]: 55 ± 12 nM; Ki [4, 11]: 1300 ± 180 nM
4 | CC(C)CCN(CC[C@H]1CC[C@H](NC(=O)c2ccc3ccccc3c2)CC1)[C@H]1CCc2nc(N)sc2C1 [Compound 8, Trans-N-(4-(2-(((S)-2-amino-4,5,6,7-tetrahydrobenzo[d]thiazol-6-yl)(isopentyl)amino)ethyl)cyclohexyl)-2-naphthamide] | 13000 nM | >5,000 | 157 | 345 ± 33 nM | 2.2 ± 0.1 nM |  |  |  | less potent than compound 6 to the D3 receptor [3]: 5 times
5 | Nc1nc2c(s1)C[C@@H](N(CCC1CCCCC1)CC[C@H]1CC[C@H](NC(=O)c3ccc4ccccc4c3)CC1)CC2 [Compound 9, Trans-N-(-4-(2-(((S)-2-amino-4,5,6,7-tetrahydrobenzo[d]thiazol-6-yl)(2-cyclohexylethyl)amino)ethyl)cyclohexyl)-2-naphthamide] |  |  |  | 1200 nM | 23 ± 2.7 nM |  |  |  | less potent than compound 6 to the D2 receptor ([4]; Ki compared with compound 6): 3 times
6 | CCCN(CC[C@H]1CC[C@H](NC(=O)c2cc3ccccc3o2)CC1)[C@H]1CCc2nc(N)sc2C1 [Compound 11, Trans-N-(4-(2-(((S)-2-amino-4,5,6,7-tetrahydrobenzo[d]thiazol-6-yl)(propyl)amino)ethyl)cyclohexyl)benzofuran-2-carboxamide] |  |  |  | 68 ± 4.6 nM |  |  |  |  | 
7 | CCCN(CC[C@H]1CC[C@H](NC(=O)C=Cc2ccccc2)CC1)[C@H]1CCc2nc(N)sc2C1 [Compound 12, Trans-N-(4-(2-(((S)-2-amino-4,5,6,7-tetrahydrobenzo[d]thiazol-6-yl)(propyl)amino)ethyl)cyclohexyl)cinnamamide] |  |  |  | 330 ± 69 nM |  | good aqueous solubility | no detectable agonist activity at the D2 receptor; also recorded: no detectable agonist or antagonist activity at the D2 receptor | failed to induce changes in body temperature | effect on induction of hypothermia by pramipexole [7]: failed to alter the induction of hypothermia by pramipexole

The next lines start with results.

Row | Ki [2] | Selectivity D1-like/D3 [3] | Selectivity D2-like/D3 [3] | Ki [4, 8] | Ki [3, 9] | aqueous solubility [6] | Compound | in vivo functional activity at the D2 receptor [1] | induction of hypothermia / changes in body temperature [1] | further results
8 | > 50000 nM | >5000 | >1000 | > 10000 nM |  |  | COc1ccc2c(c1)CCC1CN(CCC3CCC(NC(=O)c4ccc5ccccc5c4)CC3)CCN21 (centres unmarked) [Compound 4, reference compound] |  |  | Ki [3]: 5.7 ± 0.4 nM; aqueous solubility, known compounds [5]: poor aqueous solubility
9 |  |  |  |  | 0.043 ± 0.006 nM | good aqueous solubility | CCCN(CCCCNC(=O)c1ccc2ccccc2c1)[C@H]1CCc2nc(N)sc2C1 [Compound 5, (S)—N-(4-((2-amino-4,5,6,7-tetrahydrobenzo[d]thiazol-6-yl)(propyl)amino)butyl)-2-naphthamide] | full agonist at the D3 and D2 receptors in vivo | hypothermia was induced by compound 5 at higher doses | Ki [4, 10]: 2.7 ± 0.4 nM; Ki [4, 11]: 6700 ± 1500 nM
10 | 64000 nM | >8,000 | 88 | 670 ± 140 nM | 7.6 nM |  | Nc1nc2c(s1)C[C@@H](NCC[C@H]1CC[C@H](NC(=O)c3ccc4ccccc4c3)CC1)CC2 [Compound 10, Trans-N-(4-(2-((S)-2-amino-4,5,6,7-tetrahydrobenzo[d]thiazol-6-ylamino)ethyl)cyclohexyl)-2-naphthamide] |  |  | less potent than compound 6 to the D3 receptor [3]: 19 times
